The record followed here is ChEMBL document CHEMBL4270488, “Antibacterial Compounds from Marine Bacteria, 2010-2015” (J Nat Prod, 2017).

The subject of assay [1] is Bacillus subtilis. Briefly: Antibacterial activity against Bacillus subtilis by broth dilution assay. Type of assay: functional.
The next assay has as its system Salmonella typhi. Nature of the assay: Antibacterial activity against Salmonella typhi by broth dilution assay. The conditions noted are these: Salmonella enterica. Type of assay: functional, Salmonella enterica subsp. enterica serovar Typhi. A general note: Dilution methods test growth across graded concentrations, often in twofold steps.
The test system of a further assay is Pseudomonas aeruginosa. Briefly: Antibacterial activity against Pseudomonas aeruginosa by broth dilution assay. Type of assay: functional.
Assay [2] has as its system Staphylococcus aureus. Briefly: Antibacterial activity against Staphylococcus aureus by broth dilution assay. Type of assay: functional.
The next assay relates to Escherichia coli. Briefly: Antibacterial activity against Escherichia coli by broth dilution assay. The class given is functional.
In assay [3] the test system is Mycobacterium tuberculosis. Briefly: Antibacterial activity against Mycobacterium tuberculosis H37Rv ATCC 27294 incubated for 10 days by GFP based fluorescence assay. Type of assay: functional. The settings on record: H37Rv ATCC 27294, 240 h.
The test system of assay [4] is Bacillus subtilis. Briefly: Antibacterial activity against Bacillus subtilis SCSIO BS01. The class given is functional.
Another assay concerns Bacillus thuringiensis. Nature of the assay: Antibacterial activity against Bacillus thuringiensis SCSIO BT01. Type of assay: functional.
For assay [5], the system named is Staphylococcus aureus. Nature of the assay: Antibacterial activity against Staphylococcus aureus ATCC 29213. The class given is functional.
The subject of assay [6] is Staphylococcus aureus. Briefly: Antibacterial activity against Staphylococcus aureus incubated for 18 hrs. Type of assay: functional.
Assay [7] has as its system Staphylococcus aureus. Nature of the assay: Antibacterial activity against methicillin-resistant Staphylococcus aureus ATCC 43300 measured after overnight incubation by microdilution method. Type of assay: functional.
Assay [8] relates to Staphylococcus aureus. Briefly: Antibacterial activity against Staphylococcus aureus UST950701-005 measured after overnight incubation by microdilution method. Type of assay: functional.
Assay [9] relates to Staphylococcus haemolyticus. Nature of the assay: Antibacterial activity against Staphylococcus haemolyticus UST950701-004 measured after overnight incubation by microdilution method. The class given is functional.
Assay [10] concerns Bacillus subtilis. Nature of the assay: Antibacterial activity against Bacillus subtilis 769 measured after overnight incubation by microdilution method. Type of assay: functional.
The test system of assay [11] is Bacillus subtilis. Nature of the assay: Antibacterial activity against Bacillus subtilis CMCC63501. Type of assay: functional.
A short description of assay [12]: Antibacterial activity Bacillus pumilus against by broth dilution assay. Type of assay: functional.
For a further assay, the system named is Enterococcus faecalis. Nature of the assay: Antibacterial activity against Enterococcus faecalis ATCC 29212. Type of assay: functional.

Values after ≈ are worked out from the molar mass of the structure shown. *1 amine or outer side, *2 acyl side, *3 side chain or, on linkers, in order; H or OH if unused. Where a SMILES comes first, the peptide text is derived from it. Bridges are numbered along the chain shown (N, C = ends). Roman numbers before positions name the chains, in order. [ ]: non-standard residue; d: D form. The star is where a group is joined. Actinocin(1to9) = Cc1c2oc3c(C)ccc(C(=O)[*:2])c3nc-2c(C(=O)[*:1])c(N)c1=O; X2 = CCC(C)CC(C)CCCCC[C@@H](O)CC(=O)*; Pro(4-oxo) = O=C1CN[C@H](C(=O)O)C1; NMeV = CN[C@H](C(=O)O)C(C)C; Sar = CNCC(=O)O Where only a bound is given, the exact number is not on record here.

As to `C[C@@H]1CCCCC/C=C/[C@H](O)C[C@@H](O)C/C=C\C=C\[C@@H](O[C@@H]2O[C@H](CO)[C@@H](O)[C@H](O)[C@H]2O)C/C=C/C=C\C(=O)O1`, the MIC against Bacillus subtilis [1] came to 0.06 µg/mL (≈ 0.106 µM); against Salmonella typhi it was 0.03 µg/mL (≈ 0.0529 µM); against Pseudomonas aeruginosa it was 0.03 µg/mL (≈ 0.0529 µM); against Staphylococcus aureus [2] it was 0.06 µg/mL (≈ 0.106 µM); with Escherichia coli, 0.06 µg/mL (≈ 0.106 µM).
Regarding `Cc1c2oc3c(C)ccc(C(=O)N[C@@H]4C(=O)N[C@H](C(C)C)C(=O)N5CCC[C@H]5C(=O)N(C)CC(=O)N(C)[C@@H](C(C)C)C(=O)O[C@@H]4C)c3nc-2c(C(=O)N[C@@H]2C(=O)N[C@H](C(C)C)C(=O)N3CC(O)C[C@H]3C(=O)N(C)CC(=O)N(C)[C@@H](C(C)C)C(=O)O[C@@H]2C)c(N)c1=O` (stereo not given in full), the MIC in [3] lay within 1 to 8 µg/mL (≈ 0.787 to 6.29 µM).
As to `C/C(C=O)=C/CC/C(C)=C/C[C@@]12OC(C)(C)[C@H](Cl)C[C@]1(Cl)C(=O)c1c(O)cc(O)cc1C2=O`, the MIC against Bacillus subtilis [4], in the assay on Bacillus thuringiensis and with Staphylococcus aureus [5] was 4 to 32 µg/mL (≈ 8.07 to 64.6 µM) throughout.
In the case of `Cc1c2oc3c(C)ccc(C(=O)N[C@@H]4C(=O)N[C@H](C(C)C)C(=O)N5CCC[C@H]5C(=O)N(C)CC(=O)N(C)[C@@H](C(C)C)C(=O)O[C@@H]4C)c3nc-2c(C(=O)N[C@@H]2C(=O)N[C@H](C(C)C)C(=O)N3CC(=O)C[C@H]3C(=O)N(C)CC(=O)N(C)[C@@H](C(C)C)C(=O)O[C@@H]2C)c(N)c1=O` (I: T[dV][Pro(4-oxo)][Sar][NMeV] / II: T[dV]P[Sar][NMeV]; ester I:1-I:C, II:1-II:C; linker I:N-II:N via Actinocin(1to9)), the MIC in [3] was in the range of 1 to 8 µg/mL (≈ 0.788 to 6.3 µM).
Take `C=C1CC[C@H](Br)C(C)(C)[C@@H]1C[C@@]12OC(C)(C)[C@H](Cl)C[C@]1(Cl)C(=O)c1c(O)cc(O)cc1C2=O`: the minimal inhibitory concentration (MIC) in the assay with Bacillus subtilis [4], against Bacillus thuringiensis and in the assay on Staphylococcus aureus [5] was at most 0.5 µg/mL throughout.
`C[C@@H]1CCC/C=C/C=C/[C@H](O)C[C@@H](O)C[C@@H]2O[C@@H]2/C=C/[C@@H](O)C/C=C/C=C\C(=O)O1` [GAGEOMACROLACTIN 1]: the MIC in the assay on Bacillus subtilis [1] turned out to be 0.01 µg/mL (≈ 0.0239 µM); against Salmonella typhi, 0.02 µg/mL (≈ 0.0478 µM); in the assay with Pseudomonas aeruginosa, 0.01 µg/mL (≈ 0.0239 µM); against Staphylococcus aureus [2] it was 0.01 µg/mL (≈ 0.0239 µM); against Escherichia coli, 0.02 µg/mL (≈ 0.0478 µM).
The molecule `C[C@@H]1O[C@](C)(C(=O)O)O[C@H]1/C=C/C=C/C=C/C(=O)O[C@H]1CC[C@H](c2ccc3c(c2O)C(=O)c2ccc4c(c2C3=O)C(=O)[C@H](O)[C@](C)(O)C4)O[C@@H]1C` yielded an MIC with Staphylococcus aureus [6] of 2 to 6 µg/mL (≈ 2.85 to 8.54 µM).
Turning to `CC(C)=CCC/C(C)=C/C[C@]1(O)C(=O)c2cc(O)cc(O)c2C(=O)[C@@]1(Cl)CC=C(C)C`, the MIC in the assay with Bacillus subtilis [4], against Bacillus thuringiensis and against Staphylococcus aureus [5] was at most 2 µg/mL each time.
Regarding `CCC(C)CC(C)CCCCC[C@@H](O)CC(=O)N[C@@H](CCC(=O)O)C(=O)N[C@@H](CC(C)C)C(=O)N[C@@H](CC(C)C)C(=O)N[C@@H](C(=O)N[C@@H](CC(=O)O)C(=O)N[C@@H](CC(C)C)C(=O)N[C@@H](CC(C)C)C(=O)O)C(C)C` (stereo not given in full) (X2-ELL[dV]DLL-OH), the MIC with Bacillus subtilis [1] was 32 µg/mL (≈ 30.3 µM); in the assay on Salmonella typhi it was 32 µg/mL (≈ 30.3 µM); in the assay on Pseudomonas aeruginosa it was 16 µg/mL (≈ 15.2 µM); in the assay with Staphylococcus aureus [2], 16 µg/mL (≈ 15.2 µM).
On to `COc1ccc2oc3c4c(c(O)c(O)c3c(=O)c2c1O)CCc1cc2c(c(O)c1-4)C(=O)N1[C@@](C)(CO)C(=O)O[C@@]1(C)C2`, for which the MIC (against Staphylococcus aureus [7]; in the assay on Staphylococcus aureus [8]; in [9]; against Bacillus subtilis [10]) was at most 1 µg/mL in each case.
As to `COC(=O)[C@@]1(C)O[C@@H](C)[C@H](/C=C/C=C/C=C/C(=O)O[C@H]2CC[C@H](c3ccc4c(c3O)C(=O)C3=C(C4=O)[C@@]4(O)C(=O)[C@H](O)[C@](C)(O)C[C@@]4(O)C=C3)O[C@@H]2C)O1`, the minimum inhibitory concentration (MIC) in the assay on Staphylococcus aureus [6] is 2 to 6 µg/mL (≈ 2.66 to 7.99 µM).
In the case of `CC1(C)OC2=C(C[C@H]1Cl)C(=O)c1c(O)cc(O)cc1C2=O`, the MIC in the assay on Bacillus subtilis [4], with Bacillus thuringiensis and against Staphylococcus aureus [5] was 4 to 32 µg/mL (≈ 13 to 104 µM) in each case.
For `COC(=O)N[C@H]1[C@@H](C)O[C@@H](O[C@H]2C/C=C(\C)[C@@H]3C=C[C@@H]4[C@@H](O[C@H]5C[C@@H](O[C@H]6C[C@@H](O)[C@@H](O[C@@H]7C[C@@H](O)[C@@H](OC)[C@H](C)O7)[C@H](C)O6)[C@@H](O)[C@H](C)O5)[C@@H](C)C[C@H](C)[C@H]4[C@]3(C)C(=O)C3=C(O)[C@@]4(C[C@@H](C)C(C=O)=C[C@H]4/C=C/2C)OC3=O)C[C@]1(C)[N+](=O)[O-]`, the figures for the MIC in the assay on Bacillus subtilis [11] and against Staphylococcus aureus [5] were 1.6 to 3.1 µg/mL (≈ 1.35 to 2.62 µM) and 6.2 to 50 µg/mL (≈ 5.23 to 42.2 µM), respectively.
For `COc1ccc2oc3c4c(c(O)c(O)c3c(=O)c2c1O)CCc1cc2c(c(O)c1-4)C(=O)N1[C@@](C)(C2)OC(=O)[C@]1(C)CO`, the MIC (against Staphylococcus aureus [7]; in the assay with Staphylococcus aureus [8]; in assay [9]; in the assay on Bacillus subtilis [10]) was at most 1 µg/mL throughout.
As to `CN(C)[C@@H]1C(O)=C(C(N)=O)C(=O)[C@@]2(O)C(O)=C3C(=O)c4c(O)cccc4[C@@](C)(O)[C@H]3C[C@@H]12` [TETRACYCLINE], the MIC (with Pseudomonas aeruginosa; in assay [12]) was 40 to 80 µg/mL (≈ 90 to 180 µM) each time.
For `Cc1cc(=O)n(C)c2c1C(=O)c1c(C)cc(=O)n3c1[C@@]2(O)C[C@]3(C)O`, the MIC with Enterococcus faecalis, against Bacillus thuringiensis and in the assay on Staphylococcus aureus [5] was 1 to 4 µg/mL (≈ 2.92 to 11.7 µM) in each case.

The term MIC denotes the lowest concentration that inhibits growth of the organism.
